Literature values, collected in patent US20100069490A1 (priority 2006, published 2010).
Structures can show the parent of a compound that is named as a salt.

Legend:
[1] = system: human polymorphonuclear leukocytes
[2] = in vivo and in vitro
rhino mouse model = settings: applied locally
lipase = settings: pure or in combination with synergisms

Compound | inhibition of chemiotaxic and chemiokinetic response [1] | anti-inflammatory activity versus reference retinoids [2] | comedolitic activity (rhino mouse model) | inhibition of hydrolysis of the triglycerides (lipase) | antibacterial activity (bacteria)
COc1ccc(-c2ccc3cc(C(=O)O)ccc3c2)cc1C12CC3CC(CC(C3)C1)C2 [Adapalene, 6-[3-(1-adamantyl)-4-methoxypheny]-2-naphthanoic acid] | inhibits the chemiotaxic and chemiokinetic response | superior to the reference retinoids | comedolitic |  | 
CCOC(=O)CC(O)(CC(=O)OCC)C(=O)OCC [Triethyl citrate, Triethyl-2-hydroxypropan-1,2,3-tricarboxylate] |  |  |  | able to inhibit hydrolysis of the triglycerides | has antibacterial activity
